According to patent US6372727B1, “Metalloporphyrin treatment of neurologic disease” (UAB Research Foundation, priority 1999, dated 2002):

What was measured:
[1] = Spectral scans of peroxynitrite-oxidized Mn porphyrins and re-reduction of Mn(IV); type: biochemical
Description: The peaks at 428 nm (left arrows) are due to Mn(IV)=O (15) whereas the 464 nm peaks (right arrows) are due to Mn(III). […] INSET: The indicated amounts of peroxynitrite were added to solutions of MnTBAP (10 μM) in phosphate buffer and the decrease in 464 nm absorbance was monitored at a data collection rate of 10 points/s. The maximal change in 464 nm absorbance associated with oxidation of Mn(III) to Mn(IV), which occurred in >1 s, was plotted versus peroxynitrite; the concentration at which no further absorbance change occurred was used to establish the reaction stoichiometry.

[2] = MP-catalyzed nitration of HPA: effect of pH, reductants and serum; type: biochemical
Description: Single additions of 100 μM peroxynitrite were made to reactions containing ascorbate or GSH. Three sequential additions of 100 μM peroxynitrite were made to all other reactions.
This level of bicarbonate results in rapid saturation of the solution with carbon dioxide (˜1 mM). Solutions were placed into a rapidly stirred cuvette and nine bolus additions (50 μM×3, 100 μM×3, and 200 μM×3) of peroxynitrite were made sequentially while the absorbance was monitored. Increasing amounts of peroxynitrite were added in a sequential manner in order to determine whether nitration efficiency varied with concentration and to determine whether nitration catalysis was maintained with multiple additions (see FIG. 6 inset). Nitration efficiency was defined as the amount of nitropeptide formed per amount of peroxynitrite added and was calculated for each peroxynitrite addition; the values shown are the average of all nine peroxynitrite additions. The absorbance changes associated with nitrotyrosine peptide production were monitored simultaneously at 380, 430, and 460 nm. The extinction coefficients for nitrated GYA at pH 7.4 are 4,400 M^−1cm^−1 at 430 nm and 2,200 M^−1cm^−1 at both 380 and 460 nm. […] Wavelengths used to quantify nitrotyrosine production were chosen to minimize interference by the particular metalloporphyrin used. Experiments using HPA as a nitration target (FIG. 7) contained 8 mM HPA in either 0.1 M potassium phosphate, pH 7.4 or 0.1 M sodium borate, pH 9.1.

[3] = reference (8); cited from earlier work
[4] = MP 5 μM, GSH 2 mM, 0.1 M potassium phosphate pH 7.4, 37° C.
Description: Aliquots (14 μl) were removed at 10 min intervals and added to 1.4 of 0.1 M potassium phosphate, pH 7.4 containing 0.2 mM dithionitrobenzoic acid (Ellman's Reagent) and 50 μM EDTA. GSH concentration was determined by the change in 430 nm absorbance. The extinction coefficient at 430 nm was determined to be 13,900 M^−1cm^−1 using a fresh GSH solution standardized by weight.
In order to test the hypothesis that Mn(II)- or Fe(II)-porphyrins would be capable of carrying out two-electron reductions of peroxynitrite and thereby decreasing rather than increasing its reactivity, attempts were made to pre-reduce these transition metal-containing MPs prior to addition of peroxynitrite.

**Q.** Which results are given for `C[n+]1ccc(-c2c3nc(c(-c4cc[n+](C)cc4)c4ccc([n-]4)c(-c4cc[n+](C)cc4)c4nc(c(-c5cc[n+](C)cc5)c5ccc2[n-]5)C=C4)C=C3)cc1.[Cl-].[Cl-].[Cl-].[Cl-].[Cl-].[Mn+3]` [MnTMPyP, Manganese (III) meso-tetra-(N-methyl-4-pyridyl)-porphine chloride]?
**A.** time to complete re-reduction to Mn(III) ([1]; 10 μM MP, peroxynitrite 20 μM alone): 30 s; time to complete re-reduction to Mn(III) ([1]; 50 μM H2O2 added before peroxynitrite): 17 s; time to complete re-reduction to Mn(III) ([1]; 50 μM nitrate added before peroxynitrite): 74 s; time to complete re-reduction to Mn(III) ([1]; 50 μM nitrite added before peroxynitrite): 30 s; time to complete re-reduction to Mn(III) ([1]; H2O2 and nitrate or H2O2 and nitrite added together): 17 s; enhancement of nitration yield at pH 9.1 ([2]; 8 mM HPA, 10 μM MP, 0.1 M sodium borate pH 9.1, versus non-catalyzed): 12.3 fold; effect of ascorbate and GSH on nitration enhancement ([2]; concentrations which eliminated non-catalyzed nitration): much less inhibitory effect; ascorbate concentration giving complete inhibition of nitration enhancement ([2]; dose-dependent, not shown): 1.5 mM; effect of serum on nitration enhancement ([2]; fresh human serum 1:10 added prior to peroxynitrite): much less effect; Rate constant for oxidation by peroxynitrite reported previously [3]: 1.8e+06 M⁻¹ s⁻¹; rate of GSH oxidation [4]: 22 µM/min
